According to patent US20110263693A1, “CELASTROL, GEDUNIN, AND DERIVATIVES THEREOF AS HSP90 INHIBITORS” (DANA-FARBER CANCER INSTITUTE, INC., priority 2006, published 2011):

Assays:
gedunin signature = assay: Connectivity Map query with the gedunin signature; format: cell-based, human; parameters: key to gedunin score (connectivity score): connectivity score, based on Kolmogorov-Smirnov statistic; settings: for gedunin score (connectivity score): enrichment of the gedunin signature (20 μM gedunin at 6 hours, LNCaP) in the compound's Connectivity Map profiles, 6 hr treatment; for connectivity scores for the gedunin signature: multiple instances, gedunin signature from LNCaP, 6 hours; for gedunin rank: rank by gedunin score among 164 Connectivity Map compounds
Method in brief: (§1)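 LNCaP cells received celastrol 1.25 μM or gedunin 20 μM for 6 h. Each signature was scored by Kolmogorov–Smirnov-based connectivity against 453 build01 profiles, mostly 6 h treatments of MCF7 cells.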

[1] = test system: celastrol and gedunin signatures; assay: Connectivity Map query with the celastrol and gedunin signatures (joint); format: cell-based, human; settings: Connectivity Map profiles, 6 hr
Description: Indeed, a major challenge in cell-based chemical biology and chemical genomics is the identification of compounds' targets (Gardner et al., 2003). We hypothesized that gene expression signatures could be used to identify compound action based on the similarity of such compound-induced signatures to signatures of existing drugs of known mechanism. We therefore employed a collection of gene expression profiles of drug-treated cell lines that was developed in our lab, termed the Connectivity Map (Lamb et al., 2006). This database comprises 453 genome-wide Affymetrix expression profiles derived from the treatment of human cell lines with 164 small molecules, primarily FDA-approved drugs. A 6 hr treatment time was chosen in an attempt to capture the primary, and potentially mechanistic, effects of the compounds rather than the downstream phenotypic consequences.
In order to use the Connectivity Map to gain insight into celastrol and gedunin function, we first defined a gene expression signature of celastrol and gedunin activity. The expression signatures of celastrol and gedunin were derived by expression profiling of RNA from LNCaP cells treated with celastrol (1.25 μM), gedunin (20 μM), and vehicle (DMSO) for 6 hr; signatures were defined using comparative marker selection to identify transcripts that distinguished between the compound- and vehicle-treated profiles by the signal-to-noise (SNR) metric. The enrichment of these signatures in the gene expression profiles of the Connectivity Map database was then assessed using a gene enrichment metric, the connectivity score, based on the Kolmogorov-Smirnov statistic (Lamb et al., 2003).
The celastrol and gedunin signatures were developed from RMA-processed microarray data from LNCaP cells treated with 1.25 μM celastrol or 20 μM gedunin for 6 hours. Comparative marker selection was used to identify markers that distinguished celastrol- and/or gedunin-treated samples from vehicle-treated samples by the median SNR (Golub et al., 1999). […]

celastrol signature = assay: Connectivity Map query with the celastrol signature; format: cell-based, human; parameters: key to celastrol score (connectivity score): connectivity score, based on Kolmogorov-Smirnov statistic; settings: for celastrol score (connectivity score): enrichment of the celastrol signature (1.25 μM celastrol at 6 h, LNCaP) in the compound's Connectivity Map profiles, 6 hr treatment; for celastrol rank: rank by celastrol score among 164 Connectivity Map compounds
Method in brief: as §1

[2] = test system: androgen signaling signature in LNCaP cells; assay: GE-HTS androgen signaling signature assay / screen; settings: LNCaP; for GE-HTS screen # replicates that score as the androgon deprived state (n = 3): KNN / GE-HTS screen # replicates that score as the androgon deprived state (n = 3): Naïve Bayes classifier (P < 0.05) / GE-HTS screen # replicates that score as the androgon deprived state (n = 3): unweighted summed score (P < 0.05) / GE-HTS screen # replicates that score as the androgon deprived state (n = 3): weighted summed score (P < 0.05): 1 nM R1881 plus compound ~20 μM, 24 hr, count of 3 replicates
[3] = test system: HSP90 interaction with the cochaperone p23; assay: HSP90 coimmunoprecipitation, p23; format: cell-based; settings: SKBR-3 cells; celastrol 2.5 μM, 12 hr
Method: Geldanamycin and other HSP90 inhibitors are known to inhibit p23 association with HSP90 (Felts et al., 2003).
SKBR-3 cells were treated with vehicle, celastrol (2.5 μM, 12 hr), and PU24FCI (20 μM, 24 hr) (Vilenchik et al., 2004). Cells were lysed in 20 mM Tris HCl (pH 7.4), 25 mM NaCl, 2 mM DDT, 20 mM Na2MoO4, 0.1% NP-40, and […]. Lysates were incubated for 2 hr at 4° C., rotating, and then centrifuged at 13,000×g for 10 min. Protein (500 μg) was incubated with H9010 anti-HSP90 antibody for 1 hr at 4° C., rotating. Protein G agarose (30 μl; Upstate) was added to each sample, and samples were then incubated for 1 hr at 4° C., rotating. The beads were washed five times with 1 ml lysis buffer. Bound proteins were isolated by boiling in sample buffer. The levels of HSP90 and coimmunoprecipitating proteins were analyzed by western blot.

HSP90α = HSP90α (Homo sapiens, UniProt P07900); assay: Geldanamycin competition assay (Cy3B-geldanamycin fluorescence polarization); format: binding; parameters: purchased Stressgen SPP776 / SPP-776; settings: celastrol and gedunin at concentrations up to ~100 μM
Method: We first tested whether celastrol or gedunin could compete with Cy3B-geldanamycin for binding to the ATP-binding pocket of purified HSP90α by fluorescence polarization assay (Kim et al., 2004, Llauger-Bufi et al., 2003).
The geldanamycin competition assay was performed as described (He et al., 2006, Kim et al., 2004), except that Cy3B-geldanamycin rather than BODIPY-geldanamycin was used as described herein.
Measurements were taken in black 96-well microtiter plates (Coming #3650). The assay buffer (HFB) contained 20 mM HEPES (K) pH 7.3, 50 mM KCl, 5 mM MgCl2, 20 mM Na2MoO4, 0.01% NP40. Before each use, 0.1 mg/mL bovine gamma globulin (BGG) (Panvera Corporation, Madison, Wis.) and 2 mM DTT (Fisher Biotech, Fair Lawn, N.J.) were freshly added. GM-cy3B was synthesized as previously reported and was dissolved in DMSO to form 10 μM solutions. Cell lysates were prepared rupturing cellular membranes by freezing at −70° C. and dissolving the cellular extract in HFB with added protease and phosphotase inhibitors. Saturation curves were recorded in which GM-cy3B (3 nM) was treated with increasing amounts of cellular lysates.

in vitro = settings: human
LNCaP cells = assay: Viability screen, luminescent ATP quantitation assay; settings: 1 nM R1881 plus compound ~20 μM, 3 days

Row | Compound | gedunin score (connectivity score) (gedunin signature) | similarity of gene expression profile to the celastrol and gedunin signatures [1] | celastrol score (connectivity score) (celastrol signature) | GE-HTS screen # replicates that score as the androgon deprived state (n = 3): KNN [2] | GE-HTS screen # replicates that score as the androgon deprived state (n = 3): Naïve Bayes classifier (P < 0.05) [2] | GE-HTS screen # replicates that score as the androgon deprived state (n = 3): unweighted summed score (P < 0.05) [2] | GE-HTS screen # replicates that score as the androgon deprived state (n = 3): weighted summed score (P < 0.05) [2] | viability screen: viability (% [ATP] normalized to R1881-treated control) (LNCaP cells) [%] | also measured
1 | C[C@@H]1C[C@H]2O[C@@H]2/C=C\C=C\C(=O)Cc2c(Cl)c(O)cc(O)c2C(=O)O1 [monorden, reference compound] | 0.511 | very strong similarity | 0.409 |  |  |  |  |  | 
2 | CO[C@H]1/C=C\C=C(/C)C(=O)NC2=CC(=O)C(NCCN(C)C)=C(C[C@@H](C)C[C@H](OC)[C@H](O)[C@@H](C)/C=C(\C)[C@@H]1OC(N)=O)C2=O [17-DMAG, 17-dimethylaminoethylamino-17-demethoxy-geldanamycin, reference compound] | 0.73 | very strong similarity | 0.766 |  |  |  |  |  | connectivity scores for the gedunin signature (gedunin signature): High connectivity scores; gedunin rank (gedunin signature): 5; celastrol rank (celastrol signature): 6
3 | C=CCNC1=C2C[C@@H](C)C[C@H](OC)[C@H](O)[C@@H](C)/C=C(\C)[C@H](OC(N)=O)[C@@H](OC)/C=C\C=C(/C)C(=O)NC(=CC1=O)C2=O [17-AAG, 17-allylamino-geldanamycin, reference compound] | 0.702 | very strong similarity | 0.736 |  |  |  |  |  | connectivity scores for the gedunin signature (gedunin signature): High connectivity scores; gedunin rank (gedunin signature): 6; effect on the GE-HTS androgen signaling signature outside the screen ([2]; with and without 12 hours androgen pretreatment): suppressed the androgen signaling signature; celastrol rank (celastrol signature): 8
4 | CC(C)NCCCn1c(Sc2cc3c(cc2I)OCO3)nc2c(N)ncnc21 [PU-H71, reference compound] |  |  |  |  |  |  |  |  | HSP90 interaction with cochaperone p23 (coimmunoprecipitation) [3]: had the same effect; competition with Cy3B-geldanamycin for binding to the ATP-binding pocket of HSP90α (HSP90α): competed with geldanamycin binding at low concentrations
5 | CO[C@H]1C[C@H](O[C@@H]2/C(C)=C/C[C@@H]3C[C@@H](C[C@]4(CC[C@H](C)[C@@H](C5CCCCC5)O4)O3)OC(=O)[C@@H]3C=C(C)/C(=N/O)[C@H]4OC/C(=C\C=C\[C@@H]2C)[C@]43O)O[C@@H](C)[C@@H]1O [selamectin] |  |  |  |  |  |  |  |  | viability (in vitro): 81.1%
6 | CC[C@@]1([C@@H]2O[C@@H]([C@H]3O[C@@](O)(CO)[C@H](C)C[C@@H]3C)C[C@@H]2C)CC[C@H]([C@]2(C)CC[C@]3(C[C@H](O)[C@@H](C)[C@@H]([C@@H](C)[C@@H](OC)[C@H](C)C(=O)O)O3)O2)O1 [monensin A, reference compound] |  |  |  | 2 | 2 | 0 | 0 | 113.6 | 
7 | dihydrocelastryl diacetate |  |  |  | 2 | 0 | 3 | 0 | 50.7 | 
8 | CCCCCCCCCCCCCCCC[N+](C)(C)C.[Br-] [cetrimonium bromide, reference compound] |  |  |  | 3 | 3 | 0 | 0 | 109.7 | 
